Data taken from a melting point compilation (Tetko et al.; mined from patent text by program, amines drawn as free bases though some values may be those of a salt).

Compound	melting point [°C]
COc1ccc(C(=O)NC(=O)Nc2ccc3c(c2)NC(=O)/C3=C/c2ccco2)cc1	278 to 283
O=C(c1ccc(O)c(O)c1)c1cccc(C(Cc2ccccc2)Cc2ccccc2)n1	141 to 143
CCN(Cc1cc(Br)ccc1OCc1ccccc1)c1ccc(C(=O)NCc2cccnc2)cc1	119 to 121
CCCc1c(OCCCCCCc2cccc(OCCCC(=O)O)c2CCC(=O)O)ccc2c1OCCC2=O	116 to 118
CSc1ncccc1NC(=O)CCCCCSc1nc2ccccc2o1	127 to 128
COc1ccccc1C1(Cl)C(=O)Nc2cc(C(F)(F)F)c(Cl)cc21 (stereo unspecified)	230 to 231
O=C(NC1=NN(c2ccc(C(=O)C(F)(F)F)cc2)C(c2ccccc2)C1)C(F)(F)F (stereo unspecified)	197 to 198
CCOC(=O)N1CCN(CCNc2ncnc3c2sc2nc(N4CCCC4)c4c(c23)CC(C)(C)OC4)CC1	97.8 to 99.1
CCOc1nn(Cc2cc(OCc3ccc4ccccc4n3)no2)cc1CCC(=O)O	123 to 124
O=C(Nc1ccc2c(c1)CCC2)c1ccccc1Cl	144 to 145
C[C@@H]1CN(c2ccc(C(F)(F)F)nc2)C[C@H](C)N1CC(=O)N1CC=C(c2ccc3c(c2)OCCO3)CC1	200 to 201
CCN(CC)C(=O)C(C)Oc1cc(-c2ccccc2)nc2ccccc12 (stereo unspecified)	124
Oc1ccc(O)c(F)c1	33 to 35
CC(Cc1ccc(C(C)(C)C)cc1)C[N+]1([O-])CC(C)OC(C)C1 (stereo unspecified)	115 to 118
OCc1cc(Cl)c(O)cc1F	125 to 127
Cc1cc(SC2=C(O)CC(CCC3CCCO3)(C(C)C)OC2=O)c(C(C)(C)C)cc1CO (stereo unspecified)	57 to 59
CCCc1nc2cc(C(=O)c3ccccc3)ccc2n1Cc1ccc(Cl)c(Cl)c1	168 to 169
COc1cc(-c2nc3ccccc3n2Cc2ccccc2C)cc(OC)c1OC	140
O=P(O)(CO)c1ccccc1	134 to 136
CN1C(=O)N2[C@H](c3cccc(O)c3)c3[nH]c4ccc(Br)cc4c3C[C@@]2(C)C1=O (racemic)	248 to 251
CCON=C(C(=O)OCC)c1csc(N)n1	129

Compound	melting point [°C]
CS(=O)(=O)NC(=O)c1ccccc1Nc1ccc(CCCc2ccc(Cl)c(Cl)c2)cc1	53 to 61
COc1cccc(Sc2ccc(O)cc2)n1	88.5 to 94.5
O=C(c1ccc(Oc2ccc(C(F)(F)F)cc2Cl)cc1)C(Cl)Cl	41 to 42
CS(=O)c1ccc(-c2cc(C(F)F)nn2-c2ccc3c(c2)OCO3)cc1 (stereo unspecified)	104 to 105
COC(=O)/C=C/[C@H](O)[C@H](Cc1ccccc1)NC(=O)OC(C)(C)C	108 to 109
CCOC(=O)Cn1c(C(=O)OCc2ccccc2)cc2cc(F)ccc21	75 to 76
CCCC(C)SC(=O)c1ccc(NC(=O)NC)cc1Cl (stereo unspecified)	89 to 95
c1ccc(CN(Cc2ccccc2)OCCCCCCCCON(Cc2ccccc2)Cc2ccccc2)cc1	49 to 51
COC(=O)c1ccc(OCCNC(=O)C2Cc3ccccc3N2S(=O)(=O)c2ccc(-c3ccc(F)cc3)cc2)c(F)c1 (stereo unspecified)	82 to 87
Cc1c2c(nn1C)N(c1ccc(Cl)cc1Cl)CCC2	66.6 to 76.6
CN1CCN(C2CC3C4CCC5CC(O)C(N6CCC(=O)CC6)CC5(C)C4CCC3(C)C2O)CC1 (stereo unspecified)	225 to 229
O=c1[nH]c2ccc(S(=O)CCN3CCC(Cc4ccc(Cl)cc4)CC3)cc2o1 (stereo unspecified)	213 to 214
COC(=O)NCCOC(=O)C(C)Oc1ccc(OCc2ccccc2)cc1 (stereo unspecified)	79 to 81
COc1cc(C)c(S(=O)(=O)c2cccc(C)c2)cc1OC	135 to 140
CCCN(CCC)S(=O)(=O)c1cccc(C2(O)CCC(=O)N2C)c1 (stereo unspecified)	58 to 60
COc1cccc2c1c(S(N)(=O)=O)nn2C	268 to 270
NS(=O)(=O)Oc1ccc2c(C3CCCCC3)csc2c1	128
CCN1CCc2cc(OC)c(OC)cc2C12CCC(C=O)CC2C1c2cc(OC)c(OC)cc2CCN1C (stereo unspecified)	137 to 139
C[C@H](Nc1cc(Cl)ccc1[N+](=O)[O-])C(=O)O	167 to 169
CSCN(C)C(=O)Nc1ccc(Cl)c(Cl)c1	103
CCCN(CCC)C(=O)N1CCc2ccc(S(=O)(=O)NC(=O)NC3CCCCC3)cc2CC1	179 to 180

Compound	melting point [°C]
CN1CCCC1=NC(=O)Nc1cccc(Cl)c1	135 to 136
COc1cc(N)c(Cl)cc1C(=O)NCC1CCN(CCCCCC(=O)c2ccc(Cl)cc2Cl)CC1	150 to 155
COCCCn1ccc2c3c(c(-c4ccccc4Cl)cc21)C(=O)NC3=O	171 to 172
CCCN(CCC)CCc1ccc(O)c2[nH]ncc12	125 to 127
COC(=O)c1ccc2cc(CCCc3cc4ccc(C(=O)OC)cc4o3)oc2c1	100 to 101
CCCN(CCC)C(=O)c1cc(C)cc(C(=O)N[C@@H](Cc2cc(F)cc(F)c2)[C@@H](O)CCN)c1	61 to 72
Cc1noc(C)c1C(=O)Nc1ccc(-n2nc(C(F)(F)F)cc2C(F)(F)F)cc1	179 to 180
CC(C)S(=O)(=O)Nc1cccc2c3c([nH]c12)C(=O)CCC3	267 to 268
O=C1c2ccc(Br)cc2C(=O)N1c1ccc2c(c1)C=C2	167 to 168
COC(=O)c1ccc(NC(=O)CSC(C)=O)cc1	137 to 139
Cn1ncnc1COc1nc2c(-c3cc(F)ccc3F)nncn2c1-c1ccccc1	200
CCSC1(CCO)C(=O)Nc2ccc(F)cc21 (stereo unspecified)	125
COC(=O)c1cccc2oc(SCCN3CCN(CC(=O)Nc4c(C(C)C)cccc4C(C)C)CC3)nc12	173 to 175
CC(=O)C(C(=O)Cc1ccccc1)C(=O)NS(=O)(=O)c1ccc(C)cc1 (stereo unspecified)	120
CCC(COc1cccc(C(F)(F)F)c1)OC(=O)NCc1ccccc1 (stereo unspecified)	73 to 74
Cn1c(-c2ccc(Cl)cc2)c(C#N)c(Cl)c1C(F)(F)F	110
CC(C)(C(=O)c1ccc(C(=O)c2ccc(C(=O)C(C)(C)N3CCOCC3)cc2)cc1)N1CCOCC1	145 to 147
COc1ccc(CN2C(=O)C(O)(c3cc(CN(C)C)ccc3OC)c3cc(Cl)ccc32)c(OC)c1 (stereo unspecified)	189
O=c1[nH]c2cc(Cl)cc(Cl)c2c(=O)n1Cc1ccccc1	260 to 265

Other lines, results leading:

melting point [°C]	Compound
270	O=C1c2cccc(Cl)c2C(O)N1c1ccc2ccc(Cl)nc2n1 (stereo unspecified)
101	Cc1cc(C)n(C(=O)CCNS(=O)(=O)c2ccc(Cl)cc2)n1
87 to 90	Cc1cc(OCCNC(=O)C2Cc3ccccc3N2S(=O)(=O)c2ccc(-c3cccc(C(F)(F)F)c3)cc2)ccc1CC(=O)O (stereo unspecified)
82.5 to 85.5	COc1ccccc1C(=O)N(c1ccccc1)c1ccc(OCCN(C)C)cc1
156	CON=C(C1=C(O)C(=O)N(c2ncc(S(=O)(=O)c3ccc([N+](=O)[O-])cc3)s2)C1c1ccc(C(C)C)cc1)c1ccc(C)cc1 (stereo unspecified)
136 to 138	CC1CCN(CCCC(=O)c2ccc3sc4ccc(C(=O)CCCN5CCC(C)CC5)cc4c3c2)CC1
146 to 148	COC(=O)CCCCCC(c1ccccc1)c1c(C)c(O)c(C)c(C)c1OC(C)=O (stereo unspecified)
> 350	O=C(CCCl)Nc1ccc2[nH]c3ccc(NC(=O)CCCl)cc3c(=O)c2c1
223 to 227	CC1(COC2CC3C4CCC5=CC(=O)CCC5(C)C4(F)C(O)CC3(C)C2(O)C(=O)CO)CO1 (stereo unspecified)
108 to 112	NCCOc1ccncc1
162 to 164	Cc1cc(NCC(C)C)c2[nH]ncc2n1
226 to 228	Nc1c(SSc2c(-c3ncon3)nn(-c3c(Cl)cc(C(F)(F)F)cc3Cl)c2N)c(-c2ncon2)nn1-c1c(Cl)cc(C(F)(F)F)cc1Cl
99 to 102	O=C(NCc1ccccc1[N+](=O)[O-])C1Cc2ccccc2N1S(=O)(=O)c1ccc(-c2ccc(F)cc2F)cc1 (stereo unspecified)
85 to 86	CS(=O)(=O)N(CCCl)N(C(=O)NCCCCl)S(C)(=O)=O
246 to 248	Cc1cccc(C)c1NC(=O)c1ccc(C(N)=O)cc1
90 to 93	CCN(CC)C(=S)SCCNC(=O)CCNC(=O)OCc1ccccc1
213 to 214	CN1CCc2cc(S(=O)(=O)Nc3cnc4ccc(Cl)cc4n3)ccc21
156 to 157	COC(=O)c1csc(CCCc2coc3nc(N)nc(N)c23)c1

melting point [°C]	Compound
104 to 105	CC1Cc2cccc(-c3cccc4ccccc34)c2C1=O (stereo unspecified)
55.5 to 57.5	COc1ccc2c(c1)CCC1C2CCC2(C)C(NCCCCCCCCCCN)CCC12 (stereo unspecified)
175 to 178	CC(C)=NNc1cc2c(nn1)CCN(C(=O)C1CCC1)C2
160	O=C(CC1CCN(CCCn2c(=O)[nH]c3ccccc32)CC1)c1cccc(Cl)c1
252 to 254	Cc1cc(-c2nc3cccnn3c2-c2ccnc(NC(=O)c3cncc(Cl)c3)c2)ccc1F
132 to 135	CCN1CCCC1CNC(=O)c1c(C)[nH]c2ccccc12 (stereo unspecified)
43 to 45	C#CCCCCCCOC(c1ccccc1)(c1ccccc1)c1ccccc1
165 to 167	O=C(COc1ccc(Cl)cc1)N1Cc2ccc(C(=O)C(Cl)(Cl)Cl)n2Cc2ccccc21
129 to 130	Cc1ccc(C2CCCCC2)n1CC[C@H]1C[C@H](O)CC(=O)O1 (relative stereo)
130 to 132	Cc1cncn1-c1cccc([N+](=O)[O-])c1
137 to 139	N#Cc1cnc2sc(-c3ccccc3C=O)cc2c1Nc1cccc2[nH]ccc12
107 to 108	CS(=O)(=O)OCCC1=C(CCOS(C)(=O)=O)c2ccccc2Sc2ccccc21
129 to 130	CS(=O)(=O)c1ccc(Oc2ccc(O)cc2)cc1
178 to 180	COCCOc1cc2ncnc(NC3=CC(=O)C(N(C)C4CCCCC4)=CC3=O)c2cc1OC
129 to 131	CCC(CC)N(O)C(=O)Nc1ccc(Br)cc1
85 to 88	CCN(CC)c1ncc(C(=O)O)c2[nH]nc(C)c12
101 to 103	CCCCNc1nc(N2CC3CCC(CC3)C2)nc(N2CC3CCC(CC3)C2)n1
